The NIST ThermoML archive (doi:10.1021/je800224k)
Numbers after ± are expanded uncertainties.

Settings: Liquid, Bellows volumetry

CCCCCCn1cc[n+](C)c1.F[B-](F)(F)F [1-hexyl-3-methylimidazolium tetrafluoroborate]
mass density [kg/m3]
Settings	393 K	413 K	432.9 K	452.6 K	472.5 K
10000 kPa	–	1074 ± 3	1062 ± 3	1049 ± 3	1037 ± 3
20000 kPa	–	1080 ± 3	1068 ± 3	1056 ± 3	1045 ± 3
30000 kPa	–	1086 ± 3	1075 ± 3	1063 ± 3	1052 ± 3
40000 kPa	–	1092 ± 3	1081 ± 3	1069 ± 3	1058 ± 3
50000 kPa	–	1098 ± 3	1086 ± 3	1075 ± 3	1064 ± 3
60000 kPa	–	1103 ± 3	1092 ± 3	1081 ± 3	1070 ± 3
70000 kPa	–	1108 ± 3	1097 ± 3	1086 ± 3	1076 ± 3
80000 kPa	–	1113 ± 3	1102 ± 3	1092 ± 3	1081 ± 3
90000 kPa	1128 ± 3	1118 ± 3	1107 ± 3	1097 ± 3	1087 ± 3
100000 kPa	1133 ± 3	1122 ± 3	1112 ± 3	1101 ± 3	1092 ± 3
110000 kPa	1137 ± 3	1126 ± 3	1116 ± 3	1106 ± 3	1096 ± 3
120000 kPa	1141 ± 3	1131 ± 3	1121 ± 3	1111 ± 3	1101 ± 3
130000 kPa	1145 ± 3	1135 ± 3	1125 ± 3	1115 ± 3	1105 ± 3
140000 kPa	1149 ± 3	1139 ± 3	1129 ± 3	1119 ± 3	1110 ± 3
150000 kPa	1153 ± 3	1143 ± 3	1133 ± 3	1123 ± 3	1114 ± 3
160000 kPa	1157 ± 3	1147 ± 3	1137 ± 3	1128 ± 3	1118 ± 3
170000 kPa	1160 ± 3	1150 ± 3	1141 ± 3	1131 ± 3	1122 ± 3
180000 kPa	1164 ± 3	1154 ± 3	1145 ± 3	1135 ± 3	1126 ± 3
190000 kPa	1167 ± 3	1158 ± 3	1148 ± 3	1139 ± 3	1130 ± 3
200000 kPa	1171 ± 3	1161 ± 3	1152 ± 3	1143 ± 3	1134 ± 3
